Where two headings read alike, the source gives them in different places. Each block holds one compound with its values, some of them ahead of it.
Experiments:
[1] = Acute toxicity, single administration (LD50, Litchfield and Wilcoxon method); details: in vivo, rat, read-out: LD50 (95% confidence limit)
Text: The toxicity of single administrations of AP 698 has been studied in the rat, treating the animals by the oral and intraperitoneal routes with various dosage levels of AP 698.
The LD50 values, determined by the Litchfield and Wilcoxon method (J. Pharmacol. Exp. Therap., 1949, 96, 99) are given in Table 1.

[2] = test system: cerebral electrical activity in the waking rabbit; assay: Effect on deterioration of electrogenesis by cerebral ischaemia (EEG); type: in vivo
[3] = test system: hypobaric hypoxia in the mouse; assay: Changes in mortality caused by hypobaric hypoxia (survival time); type: in vivo; details: for Survival time (mean values ± standard error): 190 mmHg, controls 72,5 ± 3,5
Procedure: The experiments were conducted on mice confined in cages in which the pressure was reduced to a level (190 mmHg) which caused the death of the animals.
After determining the survival time of the controls, the effects of various dosage levels of AP 698 were studied.

isolated rabbit ileum = assay: Effect on the smooth musculature, isolated rabbit ileum
[4] = Enzyme hydrolysis in vitro, incubation with rat plasma; type: in vitro ADME; details: apovincaminic acid formed measured by gas chromatography
Text: (§1) The pharmacokinetics of enzyme hydrolysis has been studied both in vitro and in vivo in the rat after oral administration of AP 698 labelled with tritium.

[5] = Pharmacokinetics in vivo after oral administration of tritium-labelled AP 698; details: rat; for presence in the plasma: after oral AP 698
Text: as §1

[6] = post-ischaemic phase, contrary to controls
[7] = treated animals vs controls, i.v.
[8] = 16 mg/kg i.v., N.S. (MannWhitney)
[9] = 25,6 mg/kg i.v., significance 0.01 (MannWhitney)
[10] = 41,0 mg/kg i.v., significance 0.01 (MannWhitney)

SMILES: CCC12C=C(C(=O)OC3OC(=O)c4ccccc43)n3c4c(c5ccccc53)CCN(CCC1)C42 (stereo not drawn) [AP 698, 13a-ethyl-2,3,5,6,13a,13b-hexahydro-1H-indolo(3,2,1-de)pyrido(3,2,1-ij)(1,5)naphthyridin-12-phthalidyl carboxylate]
LD50 ([1]; ip, i.p.): 684 mg/kg | LD50 ([1]; po, p.o.): > 3000 mg/kg | minimal effective dose ([2]; Oryctolagus cuniculus, intravenous at the end of the ischaemic manoeuvre, dose-dependent, read-out: lowest dose with evident therapeutic effect): 0.5 mg/kg | amplitude of the theta rhythm ([2]; between the 10th and 20th minutes, contrary to controls): not reduced | (theta+beta)/(delta+alpha) ratios ([2]; between the 14th and the 25th minutes, vs controls): decrease less than in the controls | frequency of the theta rhythm [2, 6]: not increased | relative representation times (theta rhythm) [2, 6]: not dispersed | beta rhythm ([2]; post-ischaemic phase, vs controls): less reduced than in the controls | recovery of the EEG and of the cortical reactivity to stimulation [2, 7]: quicker recovery | return to a trace comparable to that recorded before the ischaemic manoeuvre [2, 7]: return in a shorter time | Survival time (mean values ± standard error) [3, 8]: 67,5 ± 2,5 sec. | Variation (survival time) [3, 8]: -6,9% | Survival time (mean values ± standard error) [3, 9]: 116,3 ± 13,5 sec. | Variation (survival time) [3, 9]: +60,4% | Survival time (mean values ± standard error) [3, 10]: 157,9 ± 33,2 sec. | Variation (survival time) [3, 10]: +117,8% | survival time, protective effect on induced hypobaric hypoxia (in words) ([3]; mouse, various dosage levels): highly significant extension of the survival time with a substantial protective effect | myorelaxant activity (isolated rabbit ileum; isolated rabbit ileum, compared with vincamine under the same conditions): considerable myorelaxant activity, decidedly higher than that displayed by vincamine | effect on the tonus and amplitude of the contractions, compared with vincamine (isolated rabbit ileum; musculature in basal conditions and made hypertonic with sodium or serotonin): greater effect | half-life [4]: 7.3 min | presence in the plasma [5]: both unchanged AP 698 and apovincaminic acid in the plasma | half-life ([5]; oral, plasma, read-out: half-life of unchanged AP 698): 72 min

levels of apovincaminic acid following the administration of AP 698 [5]: persistent levels
SMILES: CCC12C=C(C(=O)O)n3c4c(c5ccccc53)CCN(CCC1)C42 (stereo not drawn) [apovincaminic acid]
presence in the plasma [5]: both unchanged AP 698 and apovincaminic acid in the plasma

— patent publication US4486437A, “Phthalidyl apovincaminate with cerebral eubolic activity” (Ausonia Farmaceutici s.r.l., priority 1982, dated 1984)
